The values below come from ChEMBL document CHEMBL1201862, “PubChem BioAssay data set” (2004).

Test in all cases: NCI anticancer screen, dose series, 48 h
In assay [1] the test system is OVCAR-5.
In assay [2] the test system is Hs-578T.
Assay [3] has as its system 786-0.
Assay [4] has as its system SF-268.
In assay [5] the test system is M14.
Assay [6] deals with OVCAR-8.
Assay [7] deals with NCI-H460.
For assay [8], the system named is HCT-15.
Assay [9] concerns K562.
The test system of assay [10] is DU-145.
Assay [11] has as its system RPMI-8226.
For assay [12], the system named is BT-549.
Assay [13] relates to UACC-62.
Assay [14] has as its system COLO 205.
The subject of assay [15] is NCI/ADR-RES.
For assay [16], the system named is U-251.
Assay [17] concerns HOP-62.
Assay [18] has as its system LOX IMVI.
The subject of assay [19] is OVCAR-4.

SMILES strings stand for the structures.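 Results reflect a 48-hour exposure of cells in 96-well plates to compound at five concentrations. GI50: concentration for 50% inhibition of growth.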 Active and inactive are the calls of the source. Cut-off read from the data, not from the text of the source: active = GI50 up to about 1.1 µM and inactive = higher. Bounds are passed on as bounds.

For the compound `CC(NC(=O)C(C)C(=O)NCc1ccc(C(F)(F)F)cc1)C(N)=O` (stereo not drawn), the GI50 in assay [1], in [2], in assay [3], in assay [4], in assay [5] and in assay [6] was > 100 µM (inactive) each time. Also, the GI50 was > 100 µM (inactive) in [7]; above 100 µM in assay [8]; > 100 µM (inactive) in assay [9]; > 100 µM (inactive) in assay [10]; > 100 µM (inactive) in assay [11]; 84.7 µM (inactive) in assay [12]. The GI50 in [13], in assay [14], in assay [15] and in [16] was > 100 µM (inactive) each time.
For the compound `C[N+](C)(C)CC(=O)N/N=C(/CC1OC(=O)c2ccccc21)c1ccccc1O` (stereo not drawn), the GI50 in assay [17] is 35.4 µM (inactive); in assay [1] it was > 100 µM (inactive); in [2], 60.3 µM (inactive); in assay [3] it was 25.8 µM (inactive); in assay [4], 81.8 µM (inactive); in [5], > 100 µM (inactive). For the same compound, the GI50 in [6] was 29.2 µM (inactive); in assay [7] it was 24.4 µM (inactive); in [8], 36.2 µM; in [10], 34.7 µM (inactive); in [11], 5.94 µM (inactive); in assay [18], 17.4 µM (inactive). Moreover, the GI50 in assay [12] was 25.1 µM (inactive); in assay [13] it was 22.9 µM (inactive); in assay [14], 68.2 µM (inactive); in assay [15] it was 19.3 µM (inactive); in [19], 45.1 µM (inactive); in assay [16], 22 µM (inactive).
Take `Cc1ccc(-n2cc([Si](C)(C)C)nn2)s1`: the GI50 in assay [1], in [2], in assay [3], in assay [4], in [5] and in assay [6] was > 100 µM (inactive) in each case. The GI50 in [7] was > 100 µM (inactive); in assay [8] it was above 100 µM; in assay [9], 45.1 µM (inactive); in assay [10], > 100 µM (inactive); in [11] it was 22.9 µM (inactive); in assay [18], > 100 µM (inactive). For the same compound, the GI50 in assay [12] was > 100 µM (inactive); in [13], > 100 µM (inactive); in assay [14] it was 61.8 µM (inactive); in assay [15] it was 48.4 µM (inactive); in assay [19] it was > 100 µM (inactive); in assay [16], > 100 µM (inactive).
With `CC(=O)OC1COC(Nc2nc(N)n(C)c(=O)c2N=O)C(OC(C)=O)C1OC(C)=O` (stereo not drawn), the GI50 in assay [17], in assay [1], in [2], in assay [3], in [4] and in assay [5] was > 10 µM (inactive) in each case. Further, the GI50 in assay [6], in assay [7], in assay [10], in [11], in [18] and in assay [12] was > 10 µM (inactive) each time. The GI50 in assay [13], in [14], in assay [15], in assay [19] and in assay [16] was > 10 µM (inactive) in each case.
For the compound `COC(=O)c1c(-c2ccc(Cl)cc2)cc2c3ccccc3n(C)c2c1C(=O)OC`, the GI50 in assay [17], in assay [1], in [2], in assay [3], in assay [4] and in assay [5] was > 100 µM (inactive) in each case. Moreover, the GI50 in [6] is > 100 µM (inactive); in assay [7] it was 49.8 µM (inactive); in assay [8] it was above 100 µM; in [9], 22.8 µM (inactive); in assay [10], > 100 µM (inactive); in assay [18], > 100 µM (inactive). For the same compound, the GI50 in assay [12], in assay [13], in assay [14], in assay [15], in [19] and in assay [16] was > 100 µM (inactive) each time.
Turning to `NC1OC(COC(=O)c2ccccc2)C(O)C(OC(=O)c2ccccc2)C1OC(=O)c1ccccc1` (stereo not drawn), the GI50 in assay [17] is 22.7 µM (inactive); in assay [1], 24.3 µM (inactive); in assay [2], 15.1 µM (inactive); in assay [3] it was 15.5 µM (inactive); in [4], 22.6 µM (inactive); in assay [5], 24.3 µM (inactive). In addition, the GI50 is 17.9 µM (inactive) in [6]; 11.4 µM (inactive) in [7]; 32.7 µM in assay [8]; 40.1 µM (inactive) in assay [10]; > 100 µM (inactive) in assay [11]; 14.4 µM (inactive) in [18]. For the same compound, the GI50 in assay [12] is 20.7 µM (inactive); in assay [13] it was 14.1 µM (inactive); in [14] it was 22.1 µM (inactive); in assay [15] it was 33.3 µM (inactive); in [19] it was 35.5 µM (inactive); in [16] it was 17.7 µM (inactive).
In the case of `C=CCN1C[C@H](C)N([C@H](c2ccc(C(=O)NC(CC)CC)cc2)c2cccc(OC)c2)C[C@H]1C`, the GI50 in assay [17] is > 100 µM (inactive); in assay [1] it was 59.6 µM (inactive); in [2], > 100 µM (inactive); in [3], 34.6 µM (inactive); in [4], 83.2 µM (inactive); in [5], 17.7 µM (inactive). Moreover, the GI50 in [6] is 62.5 µM (inactive); in assay [7] it was 31 µM (inactive); in assay [8], 29.4 µM; in assay [9], 32.4 µM (inactive); in [10], 81.8 µM (inactive); in [18], 4.38 µM (inactive). The GI50 is 29.1 µM (inactive) in [12]; 20.8 µM (inactive) in assay [13]; 17.9 µM (inactive) in [14]; 42.8 µM (inactive) in assay [15]; 46 µM (inactive) in [19]; 34 µM (inactive) in [16].
As for `COc1cc(Cn2c3c(c4cc(O)ccc42)C(=O)c2ccccc2C3=O)cc(OC)c1`, the GI50 is 2.77 µM (inactive) in [17]; 9.23 µM (inactive) in assay [1]; 11 µM (inactive) in assay [2]; 2.37 µM (inactive) in assay [3]; 2.88 µM (inactive) in [4]; 16.3 µM (inactive) in assay [5]. For the same compound, the GI50 in assay [6] is 3.55 µM (inactive); in assay [7], 5.61 µM (inactive); in assay [8], 11.7 µM; in [10] it was 10.8 µM (inactive); in assay [11] it was 0.337 µM (active); in [18], 31.7 µM (inactive). The GI50 was 1.82 µM (inactive) in assay [12]; 2.04 µM (inactive) in assay [13]; 12.6 µM (inactive) in [14]; 6 µM (inactive) in assay [15]; 4.86 µM (inactive) in [19]; 3.6 µM (inactive) in assay [16].
In the case of `NP(=O)(OCC1=CC(=O)c2ccccc2C1=O)N(CCBr)CCBr` (stereo not drawn), the GI50 is 22.3 µM (inactive) in assay [1]; 31.5 µM (inactive) in assay [2]; 5.82 µM (inactive) in assay [3]; 11.2 µM (inactive) in assay [4]; 2.01 µM (inactive) in [5]; 12.1 µM (inactive) in [6]. For the same compound, the GI50 in [7] was 1.79 µM (inactive); in assay [8], 5.13 µM; in assay [9], 3.05 µM (inactive); in [10], 5.04 µM (inactive); in assay [11], 11.6 µM (inactive); in [18] it was 3.96 µM (inactive). In addition, the GI50 in [12] was 2.09 µM (inactive); in assay [13] it was 2.24 µM (inactive); in [14] it was 2.2 µM (inactive); in [15], 8.49 µM (inactive); in assay [19], 16.4 µM (inactive); in assay [16], 11.5 µM (inactive).
With `CN(C)CCNC(=O)c1cccc2c1Oc1cccc([N+](=O)[O-])c1O2`, the GI50 in assay [17] is 16.1 µM (inactive); in assay [1], 20.5 µM (inactive); in assay [2] it was 18.4 µM (inactive); in assay [3], 19.2 µM (inactive); in [4], 21.2 µM (inactive); in assay [5], 16.2 µM (inactive). Moreover, the GI50 in assay [6] is 20.8 µM (inactive); in assay [7], 17.3 µM (inactive); in [8], 33.8 µM; in [9], 20 µM (inactive); in assay [10], 17.7 µM (inactive); in assay [12], 13.3 µM (inactive). Also, the GI50 is 18.1 µM (inactive) in [13], 21.6 µM (inactive) in assay [14], 19.1 µM (inactive) in assay [15] and 21 µM (inactive) in assay [16].
For the compound `CCOC(=O)C(Br)(C(N)=O)C1(O)OC(c2ccccc2)=C(Br)C1=O` (stereo not drawn), the GI50 in assay [17] is 32.1 µM (inactive); in assay [1], 21.1 µM (inactive); in assay [2] it was 50.7 µM (inactive); in assay [3], 23.3 µM (inactive); in assay [4], 22.2 µM (inactive); in assay [5] it was 28.4 µM (inactive). Besides, the GI50 is 17.5 µM (inactive) in assay [6]; > 100 µM (inactive) in [7]; 16.7 µM in assay [8]; 22.4 µM (inactive) in [9]; 44.6 µM (inactive) in [10]; 12.4 µM (inactive) in assay [11]. Further, the GI50 in [18] was 21.3 µM (inactive); in [12], 19.2 µM (inactive); in [13], 27.8 µM (inactive); in [14], 17 µM (inactive); in [15], 60.3 µM (inactive); in assay [16], 17.6 µM (inactive).
